Test results reported in patent publication US12391674B2, “Heterocyclic compounds for the treatment of epilepsy” (OTSUKA PHARMACEUTICAL CO., LTD., priority 2018, dated 2025).

Assays:
DBA/2 mice = test: Audiogenic seizure model; assay type: in vivo; conditions: Mus musculus, DBA/2 mice, oral, auditory stimulation 1 hour after administration, read-out: Seizure suppression
How it was run: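 Male and female DBA/2 mice (3 weeks old, 8/group) dosed orally at 30 mg/kg in 5% gum arabic; 1 h later exposed to 12.6 kHz, 100-110 dB tone for 1 min or until tonic seizure. Maximum seizure score (0–4) recorded; suppression rate graded A (≥90%), B (70–<90%), C (50–<70%).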

ICR mice = test: Rotarod test (motor coordination); assay type: in vivo, mouse; conditions: oral, rotarod 1 hour after administration
Protocol: This test is performed to evaluate the effect of the compound on the motor coordination. In this test example, the example compounds shown in Table 4 below were used as test compounds. Male ICR mice (Japan SLC, Inc., 5-6 weeks, 8 per group) were trained to remain on a fixed speed (15 rpm) rotating rod of rotarod apparatus (Muromachi Kikai Co., Ltd.) for 2 minutes. […] After 1 hour of oral administration, the mice were again placed on the rod accelerated from 4 rpm to 40 rpm over 5 minutes and the latency to fall off the rod was recorded for 200 seconds. The falling latency of the compound administration group was calculated as a relative value relative to the average value of the falling latency in the solvent administration group. Here, a coordination disorder of 25% or less was expressed as “A”, and a coordination disorder of more than 25% and 50% or less was expressed as “B”.

Row | Compound | inhibition in vivo at 5 mg/kg (DBA/2 mice) [%] | inhibition in vivo at 30 mg/kg (DBA/2 mice) [%] | other results
1 | COc1ccc(-c2cnc(Oc3ccccc3)nc2)nn1 [Example 1, 3-Methoxy-6-(2-Phenoxypyrimidin-5-Yl)Pyridazine] | > 90 |  | Motor dysfunction (ICR mice; dose 5 mg/kg): A (a coordination disorder of 25% or less)
2 | Cc1ccc(-c2cnc(Oc3ccccc3)nc2)nn1 [Example 2] |  | > 90 | Motor dysfunction (ICR mice; dose 10 mg/kg): A (a coordination disorder of 25% or less)
3 | COc1ccc(-c2cnc(Oc3ccccc3F)nc2)nn1 [Example 3] | > 90 |  | Motor dysfunction (ICR mice; dose 10 mg/kg): A (a coordination disorder of 25% or less)
4 | COc1ccc(-c2cnc(Oc3cccc(F)c3)nc2)nn1 [Example 4, 3-(2-(3-Fluorophenoxy)Pyrimidin-5-Yl)-6-Methoxypyridazine] | > 90 |  | Motor dysfunction (ICR mice; dose 5 mg/kg): A (a coordination disorder of 25% or less)
5 | COc1ccc(-c2cnc(Oc3ccc(F)cc3)nc2)nn1 [Example 5] | > 90 |  | Motor dysfunction (ICR mice; dose 5 mg/kg): A (a coordination disorder of 25% or less)
6 | COc1ccc(-c2cnc(Oc3ccccc3)nc2)cn1 [Example 6, 5-(6-Methoxypyridin-3-Yl)-2-Phenoxypyrimidine] | > 90 |  | Motor dysfunction (ICR mice; dose 5 mg/kg): A (a coordination disorder of 25% or less)
7 | c1ccc(Oc2ncc(-c3cccnc3)cn2)cc1 [Example 7, 2-Phenoxy-5-(Pyridin-3-Yl)Pyrimidine] | > 90 |  | Motor dysfunction (ICR mice; dose 5 mg/kg): A (a coordination disorder of 25% or less)
8 | Cc1ccc(-c2cnc(Oc3ccccc3)nc2)cn1 [Example 8] |  |  | inhibition in vivo at 10 mg/kg (DBA/2 mice): > 90%; Motor dysfunction (ICR mice; dose 10 mg/kg): A (a coordination disorder of 25% or less)
9 | c1ccc(Oc2ncc(-c3ccncn3)cn2)cc1 [Example 10] |  | > 90 | Motor dysfunction (ICR mice; dose 30 mg/kg): A (a coordination disorder of 25% or less)
10 | [O-][n+]1cccc(-c2cnc(Oc3ccccc3)nc2)c1 [Example 11, 3-(2-Phenoxypyrimidin-5-Yl)Pyridine 1-Oxide] | > 90 |  | Motor dysfunction (ICR mice; dose 5 mg/kg): A (a coordination disorder of 25% or less)
11 | Cc1cc(-c2cnc(Oc3ccccc3)nc2)ccn1 [Example 22] | > 90 |  | Motor dysfunction (ICR mice; dose 5 mg/kg): A (a coordination disorder of 25% or less)
12 | Nc1ccc(-c2cnc(Oc3cccc(F)c3)nc2)nn1 [Example 24, 6-(2-(3-Fluorophenoxy)Pyrimidin-5-Yl)Pyridazin-3-Amine] | > 90 |  | Motor dysfunction (ICR mice; dose 5 mg/kg): A (a coordination disorder of 25% or less)
13 | Nc1ccc(-c2cnc(Oc3ccccc3F)nc2)nn1 [Example 26] | > 90 |  | Motor dysfunction (ICR mice; dose 5 mg/kg): A (a coordination disorder of 25% or less)
14 | FC(F)(F)c1ccc(-c2cnc(Oc3ccccc3)nc2)cn1 [Example 27] |  | > 90 | Motor dysfunction (ICR mice; dose 30 mg/kg): A (a coordination disorder of 25% or less)
15 | Nc1ccc(-c2cnc(Oc3ccccc3)nc2)nn1 [Example 30, 6-(2-Phenoxypyrimidin-5-Yl)Pyridazin-3-Amine] | > 90 |  | Motor dysfunction (ICR mice; dose 5 mg/kg): A (a coordination disorder of 25% or less)
16 | c1ccc(Oc2ncc(-c3ccnnc3)cn2)cc1 [Example 31] | > 90 |  | Motor dysfunction (ICR mice; dose 5 mg/kg): A (a coordination disorder of 25% or less)
17 | Fc1ccc(-c2cnc(Oc3ccccc3)nc2)cn1 [Example 33] | > 90 |  | Motor dysfunction (ICR mice; dose 30 mg/kg): A (a coordination disorder of 25% or less)
18 | Cc1ncccc1-c1cnc(Oc2ccccc2)nc1 [Example 34] |  | > 90 | Motor dysfunction (ICR mice; dose 30 mg/kg): A (a coordination disorder of 25% or less)
19 | Nc1ccc(-c2cnc(Oc3ccccc3)nc2)cn1 [Example 36, 5-(2-Phenoxypyrimidin-5-Yl)Pyridin-2-Amine] | > 90 |  | Motor dysfunction (ICR mice; dose 5 mg/kg): A (a coordination disorder of 25% or less)
20 | FC(F)(F)c1ccc(-c2cnc(Oc3ccccc3)nc2)nn1 [Example 38, 3-(2-Phenoxypyrimidin-5-Yl)-6-(Trifluoromethyl)Pyridazine] |  |  | inhibition in vivo at 10 mg/kg (DBA/2 mice): > 90%; Motor dysfunction (ICR mice; dose 10 mg/kg): A (a coordination disorder of 25% or less)
21 | Fc1cccc(Oc2ncc(-c3ccc4nncn4n3)cn2)c1 [Example 291] |  | > 90 | 
22 | Fc1ccc(Oc2ncc(-c3ccc4nncn4n3)cn2)cc1 [Example 292] |  | > 90 | 
23 | FC(F)(F)c1cccc(-c2cnc(Oc3ccccc3)nc2)n1 [Example 301] |  | > 90 | 

Row | Compound | inhibition in vivo at 5 mg/kg (DBA/2 mice) [%] | inhibition in vivo at 30 mg/kg (DBA/2 mice) [%] | other results
24 | O=C1CCN(c2ccc(Oc3cccc(OC(F)(F)F)c3)cc2)C(=O)N1 [Example 306] |  |  | Motor dysfunction (ICR mice; dose 30 mg/kg): A (a coordination disorder of 25% or less)
25 | CN1C(=O)CCN(c2ccc(Oc3cccc(F)c3)cc2)C1=O [Example 308, 1-(4-(3-Fluorophenoxy)Phenyl)-3-Methyldihydropyrimidine-2,4 (1H,3H)-Dione] |  | 50 to 70 | 
26 | O=C1CCN(c2ccc(Oc3ccc(F)cc3)cc2)C(=O)N1 [Example 310] |  | 50 to 70 | 
27 | O=C1CCN(c2cccc(Oc3ccc(F)cc3)c2)C(=O)N1 [Example 315] |  | 70 to 90 | 
28 | O=C1CCN(c2ccc(Oc3ccc(S(F)(F)(F)(F)F)cc3)cc2)C(=O)N1 [Example 317] |  | 50 to 70 | 
29 | O=C1CCN(c2ccc(Oc3cccnc3)cc2)C(=O)N1 [Example 318] |  | 50 to 70 | 
30 | O=C1CCN(c2ccc(OC(F)(F)F)cc2)C(=O)N1 [Example 319] |  | 50 to 70 | 
31 | O=C1CCN(c2ccc(Oc3cccc(F)n3)cc2)C(=O)N1 [Example 321, 1-[4-(6-Fluoropyridin-2-Yloxy)Phenyl]Dihydropyrimidine-2,4 (1H,3H)-Dione] |  | 50 to 70 | 
32 | O=c1ccn(-c2ccc(Oc3ccccc3)cc2)c(=O)[nH]1 [Example 322, 1-(4-Phenoxyphenyl)Pyrimidine-2,4 (1H,3H)-Dione] |  | 50 to 70 | 
33 | Cc1cc(Oc2ccccc2)ccc1N1CCC(=O)NC1=O [Example 324] |  | 50 to 70 | 
34 | Cc1nc(Oc2ccccc2)ccc1N1CCC(=O)NC1=O [Example 326] |  | 50 to 70 | 
35 | O=C1CCN(c2ccc(-c3ccccc3)cc2)C(=O)N1 [Example 327, 1-((1,1′-Biphenyl)-4-Yl)Dihydropyrimidine-2,4 (1H,3H)-Dione] |  | 50 to 70 | 
36 | O=C1CCN(c2cc(F)c(Oc3ccccc3)c(F)c2)C(=O)N1 [Example 330] |  | 50 to 70 | 
37 | Cc1cc(Oc2cccc(F)c2)ccc1N1CCC(=O)NC1=O [Example 334] |  | 50 to 70 | 
38 | Cc1cc(Oc2cccc(C(F)(F)F)c2)ccc1N1CCC(=O)NC1=O [Example 335] |  | 70 to 90 | 
39 | O=C1CCN(c2ccc(Cc3ccc(F)cc3)cc2)C(=O)N1 [Example 338] |  | 50 to 70 | 
40 | O=C1CCN(c2ccc(Cc3cccc(OC(F)(F)F)c3)cc2)C(=O)N1 [Example 339] |  | 70 to 90 | 
41 | O=C1CCN(c2ccc(Cc3cccc(C(F)(F)F)c3)cc2)C(=O)N1 [Example 341] |  | 50 to 70 | 
42 | O=C1CCN(c2ccc(Cc3ccc(C(F)(F)F)cc3)cc2)C(=O)N1 [Example 342] |  | 50 to 70 | 
43 | O=C1CCN(c2ccc(Oc3cc(F)cc(F)c3)cc2)C(=O)N1 [Example 344] |  | 50 to 70 | 
44 | O=C1CCN(c2ccc(Oc3cccc(F)c3)c3ccccc23)C(=O)N1 [Example 345] |  | 50 to 70 | 
45 | O=c1ccn(-c2ccc(Oc3ccccc3)nn2)c(=O)[nH]1 [Example 346, 1-(6-Phenoxypyridazin-3-Yl)Pyrimidine-2,4 (1H,3H)-Dione] |  | 50 to 70 | 
